Experimental findings from patent US20230390289A1, “COMBINED USE OF IN10018 AND PLD” (INXMED (NANJING) CO., LTD., priority 2021, published 2023) are described below.

This data set is described as follows: Study IN10018-006 safety: adverse events (CTCAE). Conditions: female, human, in vivo. As to the method: IN10018 in combination with pegylated liposomal doxorubicin (PLD) for the treatment of platinum-resistant ovarian cancer is currently being evaluated in a Phase Ib/II clinical study (IN10018-006) in China. The IN10018 was used as its tartrate, and the PLD was used as commercially available doxorubicin hydrochloride liposome injection (common name). Study subjects received IN10018 100 mg once daily (QD) orally combined with PLD 40 mg/m^2 by intravenous infusion once every 4 weeks (Q4W). A treatment cycle was 28 days.
By Jul. 30, 2021, a total of 26 patients with platinum-resistant ovarian cancer had been enrolled in the study. All subjects received at least one study drug treatment and were included in the safety analysis; 18 subjects had at least one post-baseline tumor imaging evaluation and were included in efficacy analysis.
By Jun. 22, 2021, 21 of the 22 subjects enrolled had adverse events (AEs), and according to the investigator's assessment, 20 of them had AEs related to IN10018. Regardless of the correlation, the system organ classes (SOC) of AE reported by at least 2 subjects were investigations (90.9%), gastrointestinal disorders (81.8%), renal and urinary disorders (72.7%), general disorders and administration site conditions (59.1%), metabolism and nutrition disorders (59.1%), infections and infestations (54.5%), blood and lymphatic system disorders (50.0%), respiratory, thoracic and mediastinal disorders (27.3%), musculoskeletal and connective tissue disorders (22.7%), skin and subcutaneous tissue disorders (18.2%), nervous system disorders (13.6%), cardiac disorders (18.2%) and psychiatric disorders (9.1%).
By Jun. 22, 2021, a total of 5 of the 22 subjects enrolled had serious adverse events (SAEs), of which 3 subjects reported SAEs related to IN10018: loss of appetite (grade 3, related to both IN10018 and PLD), constipation (grade 2, related to both IN10018 and PLD), abdominal distension (grade 3, related to both IN10018 and PLD), and elevated creatinine (grade 2, related to both IN10018 and PLD). No subject had adverse events leading to dose reduction of IN10018. Adverse events leading to discontinuation of study treatment were reported by 2 subjects, wherein loss of appetite (grade 3) leading to discontinuation in 1 subject was associated with both IN10018 and PLD. […] There were no adverse events leading to death in the study.

As for `COc1cc(C(=O)NC2CCN(C)CC2)c(F)cc1Nc1ncc(C(F)(F)F)c(Oc2cccc3c2C(=O)N(C)C3)n1` [IN10018, 2-fluoro-5-methoxy-4-[(4-(2-methyl-3-oxo-2,3-dihydro-1H-isoindole-4-oxy)-5-trifluoromethyl-pyrimidin-2-yl)amino]-N-(1-methyl-piperidin-4-yl)benzamide], the “SAE abdominal distension, grade” value is 3 grade; the “SAE constipation, grade” value was 2 grade; the “SAE elevated creatinine, grade” value amounted to 2 grade; the “SAE loss of appetite, grade” value was found to be 3 grade.
